Assay results taken from patent publication US20230399320A1, “NOVEL CAPSID ASSEMBLY INHIBITOR” (Pelemed Co., Ltd., priority 2020, published 2023).
Where two headings read alike, the source gives them in different places.

Legend:
[1] = molecular target: T1, Cp149 (truncated form of a HBV core protein) (Hepatitis B virus genotype D subtype ayw, UniProt P03146); test: Protein based assay: immunoblot analysis of in vitro HBV capsid assembly; format: biochemical; conditions: for inhibition at 0.1 µM: read-out: Protein based assay (% inhibition), 0.1 μM; for inhibition at 1 µM: read-out: Protein based assay (% inhibition), 1 μM; for inhibition at 10 µM: read-out: Protein based assay (% inhibition, 10 μM)
T1 construct: Cp149 (amino acids 1-149) is a truncated form of a HBV core protein; histidine tag (cleaved yes); made in house; host or cells: Escherichia coli BL21(DE3)
T1 sequence (P03146 1-149): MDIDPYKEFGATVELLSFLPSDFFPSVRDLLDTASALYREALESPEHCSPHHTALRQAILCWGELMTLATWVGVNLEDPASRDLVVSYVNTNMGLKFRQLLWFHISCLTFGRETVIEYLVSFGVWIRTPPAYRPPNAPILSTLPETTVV
Protocol: Cp149 (amino acids 1-149) is a truncated form of a HBV core protein. It was expressed in Escherichia coli, and the expressed protein was purified. The recombinant Cp149 was expressed in E. coli BL21(DE3) cells cultured in LB medium at 37° C. When the culture reached an OD600 of 0.7 to 0.8, expression of the culture was induced with 0.5 mM isopropyl-β-d-thiogalactopyranoside and the culture was cooled to 16° C. After 16 hours, the cells were harvested, flash-frozen in liquid nitrogen, and stored at −80° C. To purify Cp149, thawed cells were resuspended in lysis buffer (20 mM Tris-HCl pH 9.0, 200 mM NaCl, 10 mM imidazole, 10 μg per mL DNaseI, 1 mM phenylmethylsulfonyl fluoride), and treated with ultrasonic waves. The supernatant was loaded onto Ni-NTA affinity resin. Proteins were eluted using a 20 mM to 500 mM imidazole gradient dissolved in lysis buffer. After removing the histidine tag with thrombin, the protein was further purified by HiTrap Q anion exchange chromatography (17115401, GE Healthcare).
To determine the effect on in vitro Cp149 assembly, compounds of the present invention were added to the Cp149-containing suspension. The final concentration of Cp149 was 1 mg per mL, and the compounds of the present invention were added at concentrations of 0.1 to 10 μM. The suspension was mixed with reaction buffer (150 mM HEPES, pH 7.5, 15 mM NaCl) added in a 2:1 ratio. In vitro assembly was performed at 37° C. for 1 hour, and HBV capsid was detected by immunoblot analysis using an anti-HBV core antibody (1:2000, B0586, Dako).

HBV DNA = test: Quantitative PCR for measuring HBV DNA in cells (HBV DNA quantification); format: cell-based
Protocol: After treating cells with the indicated compounds, HBV DNA secreted into the medium and intracellular HBV DNA were extracted, purified, and quantified by quantitative PCR. To isolate the secreted HBV DNA, the culture medium was recovered and centrifuged at 15,000×g to remove debris. The medium was diluted 1:1 with phosphate-buffered saline (PBS), and 1 M NaOH solution was added to a final concentration of 0.1 M. The mixture was incubated at 37° C. for 1 hour. The protein was denatured by adding 2M Tris-HCl solution (pH 7.5) to a final concentration of 0.2 M and incubating at 98° C. for 5 minutes. The protein precipitation was removed by centrifugation at 15,000×g, and the supernatant was subjected to PCR with HBV DNA primer and probe sets:
Forward: 5′-[…]-3′, Reverse: 5′-[…]-3′, Probe: 5′-[…]-3′.

[2] = Hepatitis B virus; read-out: HBV DNA quantification (IC50 μM)
[3] = read-out: HBV DNA quantification (IC50 μM)
[4] = Hepatitis B virus, read-out: HBV DNA quantification (IC50 μM)
[5] = Hepatitis B virus, read-out: HBV DNA quantification

Compound	inhibition at 10 µM [1] [%]	IC50 (HBV DNA; [4]) [µM]	other results
CS(=O)(=O)c1nc(Nc2ccc(F)c(Br)c2)cc(N2CCNCC2)n1 [Compound 26d, N-(3-bromo-4-fluorophenyl)-2-(methylsulfonyl)-6-(piperazin-1-yl)pyrimidin-4-amine]			inhibition at 0.1 µM [1]: 13%; inhibition at 1 µM [1]: 98%; IC50 (HBV DNA; [2]): 0.547 µM
CSc1nc(N)cc(N(CCc2ccc(F)cc2)c2ccc(N3CCOCC3)cc2)n1 [Compound 11b, N^4-(4-fluorophenethyl)-2-(methylthio)-N^4-(4-morpholinophenyl)pyrimidine-4,6-diamine]	74		IC50 (HBV DNA; [2]): > 10 µM
CS(=O)(=O)c1nc(Nc2ccc(F)c(Cl)c2)cc(N2C[C@@H]3[C@@H](N)[C@@H]3C2)n1 [Compound 29d, (1R,5S,6s)-3-(6-(3-chloro-4-fluorophenylamino)-2-(methylsulfonyl)pyrimidin-4-yl)-3-azabicyclo[3.1.0]hexan-6-amine]			IC50 (HBV DNA; [3]): 0.769 µM
CC(C)(C)OC(=O)N1CCN(c2cc(Nc3ccc(I)cc3)nc(S(C)(=O)=O)n2)CC1 [Compound 22f, tert-butyl 4-(6-(4-iodophenylamino)-2-(methylsulfonyl)pyrimidin-4-yl)piperazine-1-carboxylate]	66	1.1	
CS(=O)(=O)c1nc(Nc2ccc(F)c(Br)c2)cc(NC2CCNCC2)n1 [Compound 26g, N^4-(3-bromo-4-fluorophenyl)-2-(methylsulfonyl)-N^6-(piperidin-4-yl)pyrimidine-4,6-diamine]			inhibition at 0.1 µM [1]: 7%; inhibition at 1 µM [1]: 97%; IC50 (HBV DNA; [2]): 0.536 µM
CS(=O)(=O)c1nc(Nc2ccc(F)c(Cl)c2)cc(N2C[C@@H]3C[C@H]2CN3)n1 [Compound 29c, 6-((1S,4S)-2,5-diazabicyclo[2.2.1]heptan-2-yl)-N-(3-chloro-4-fluorophenyl)-2-(methylsulfonyl)pyrimidin-4-amine]		0.428	
CSc1nc(NCCNC(=O)c2ccc(F)cc2)cc(Nc2ccc(N3CCOCC3)cc2)n1 [Compound 4c, 4-fluoro-N-(2-(2-(methylthio)-6-(4-morpholinophenylamino)pyrimidin-4-ylamino)ethyl)benzamide]	0		IC50 (HBV DNA; [2]): > 10 µM
COc1ncccc1C(=O)NCCNc1cc(Nc2ccccc2)nc(SC)n1 [Compound 8a, 2-methoxy-N-(2-(2-(methylthio)-6-(phenylamino)pyrimidin-4-ylamino)ethyl)nicotinamide]	0		IC50 (HBV DNA; [5]): > 10 µM
CS(=O)(=O)c1nc(Nc2ccc(F)c(Cl)c2)cc(Nc2ccc(F)c(Cl)c2)n1 [Compound 18c, N^4,N^6-bis(3-chloro-4-fluorophenyl)-2-(methylsulfonyl)pyrimidine-4,6-diamine]	57	0.587	
COc1ncccc1C(=O)NCCNc1cc(Nc2ccc(Cl)cc2)nc(SC)n1 [Compound 8c, N-(2-(6-(4-chlorophenylamino)-2-(methylthio)pyrimidin-4-ylamino)ethyl)-2-methoxynicotinamide]	26		IC50 (HBV DNA; [5]): > 10 µM
C[S+]([O-])c1nc(NCCNC(=O)c2ccc(F)cc2)cc(Nc2ccc(N3CCOCC3)cc2)n1 (stereo not drawn) [Compound 5c, 4-fluoro-N-(2-(2-(methylsulfinyl)-6-(4-morpholinophenylamino)pyrimidin-4-ylamino)ethyl)benzamide]	0		IC50 (HBV DNA; [2]): > 10 µM
CS(=O)(=O)c1nc(Nc2ccc(F)c(Cl)c2)cc(N2CC3(CNC3)C2)n1 [Compound 29b, N-(3-chloro-4-fluorophenyl)-2-(methylsulfonyl)-6-(2,6-diazaspiro[3.3]heptan-2-yl)pyrimidin-4-amine]		0.235	
C[S+]([O-])c1nc(NCCNC(=O)c2ccc(Cl)cc2Cl)cc(Nc2ccc(N3CCOCC3)cc2)n1 (stereo not drawn) [Compound 5d, 2,4-dichloro-N-(2-(2-(methylsulfinyl)-6-(4-morpholinophenylamino)pyrimidin-4-ylamino)ethyl)benzamide]	0	> 10	
CC(C)(C)OC(=O)N1CCN(c2cc(Nc3ccc(F)c(F)c3)nc(S(C)(=O)=O)n2)CC1 [Compound 22g, tert-butyl 4-(6-(3,4-difluorophenylamino)-2-(methylsulfonyl)pyrimidin-4-yl)piperazine-1-carboxylate]	84	0.658	
COc1ncccc1C(=O)NCCNc1cc(Nc2ccc(F)cc2)nc(SC)n1 [Compound 8b, N-(2-(6-(4-fluorophenylamino)-2-(methylthio)pyrimidin-4-ylamino)ethyl)-2-methoxynicotinamide]	74		
COc1ncccc1C(=O)NCCNc1cc(Nc2ccc(F)cc2Cl)nc(SC)n1 [Compound 8g, N-(2-(6-(2-chloro-4-fluorophenylamino)-2-(methylthio)pyrimidin-4-ylamino)ethyl)-2-methoxynicotinamide]	43		IC50 (HBV DNA; [5]): > 10 µM
CSc1nc(NCCNC(=O)c2ccc(Cl)cc2Cl)cc(Nc2ccc(N3CCOCC3)cc2)n1 [Compound 4d, 2,4-dichloro-N-(2-(2-(methylthio)-6-(4-morpholinophenylamino)pyrimidin-4-ylamino)ethyl)benzamide]	0	> 10	
COc1ncccc1C(=O)NCCNc1cc(Nc2ccc(F)cc2Cl)nc([S+](C)[O-])n1 (stereo not drawn) [Compound 9h, N-(2-(6-(2-chloro-4-fluorophenylamino)-2-(methylsulfinyl)pyrimidin-4-ylamino)ethyl)-2-methoxynicotinamide]	43	> 10	
CS(=O)(=O)c1nc(Nc2ccc(F)c(Cl)c2)cc(NC2CCNCC2)n1 [Compound 26f, N^4-(3-chloro-4-fluorophenyl)-2-(methylsulfonyl)-N^6-(piperidin-4-yl)pyrimidine-4,6-diamine]		0.199	inhibition at 0.1 µM [1]: 59%; inhibition at 1 µM [1]: 95%
CSc1nc(Cl)cc(N(Cc2ccc(F)cc2)c2ccc(N3CCOCC3)cc2)n1 [Compound 10a, 6-chloro-N-(4-fluorobenzyl)-2-(methylthio)-N-(4-morpholinophenyl)pyrimidin-4-amine]	58	> 10	
6-(4-aminopiperidin-1-yl)-2-(methylsulfonyl)-N-(3,4,5-trifluorophenyl)pyrimidin-4-amine [Compound 26h]			Protein based assay (% inhibition), 0.1 μM ([1]; compound 0.1 μM): 29%; Protein based assay (% inhibition), 1 μM ([1]; compound 1 μM): 96%; IC50 (HBV DNA; [3]): 0.292 µM
COc1ncccc1C(=O)NCCNc1cc(Nc2ccc(F)c(F)c2)nc(S(C)(=O)=O)n1 [Compound 9g, N-(2-(6-(3,4-difluorophenylamino)-2-(methylsulfonyl)pyrimidin-4-ylamino)ethyl)-2-methoxynicotinamide]	59	> 10	
CS(=O)(=O)c1nc(Cl)cc(Nc2cc(F)c(F)c(F)c2)n1 [Compound 16b, 6-chloro-2-(methylsulfonyl)-N-(3,4,5-trifluorophenyl)pyrimidin-4-amine]	82	0.473	
COc1ncccc1C(=O)NCCNc1cc(Nc2ccc(I)cc2)nc(SC)n1 [Compound 8e, N-(2-(6-(4-iodophenylamino)-2-(methylthio)pyrimidin-4-ylamino)ethyl)-2-methoxynicotinamide]	43		
CS(=O)(=O)c1nc(Nc2ccc(F)c(Cl)c2)cc(N2C[C@H]3C[C@@H]2CN3)n1 [Compound 29a, 6-((1R,4R)-2,5-diazabicyclo[2.2.1]heptan-2-yl)-N-(3-chloro-4-fluorophenyl)-2-(methylsulfonyl)pyrimidin-4-amine]		0.15	
